Molecules are shown by their SMILES. “Also recorded” adds a separate entry of the source.

For one data set, the target named is T1, Human recombinant PNMT (Homo sapiens, UniProt P11086).
T1 sequence (P11086 1-282): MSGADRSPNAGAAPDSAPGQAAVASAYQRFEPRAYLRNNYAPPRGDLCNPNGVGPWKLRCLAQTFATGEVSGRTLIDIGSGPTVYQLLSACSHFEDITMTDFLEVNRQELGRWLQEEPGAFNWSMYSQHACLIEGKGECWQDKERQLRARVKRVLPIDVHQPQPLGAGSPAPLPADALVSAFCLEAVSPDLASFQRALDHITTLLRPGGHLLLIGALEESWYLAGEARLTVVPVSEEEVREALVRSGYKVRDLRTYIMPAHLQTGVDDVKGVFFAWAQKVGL
Briefly: PNMT selectivity assay. It is filed as biochemical.

The next data set deals with T2, PRMT4/CARM1 (Homo sapiens, UniProt Q86X55).
T2 sequence (Q86X55 1-608): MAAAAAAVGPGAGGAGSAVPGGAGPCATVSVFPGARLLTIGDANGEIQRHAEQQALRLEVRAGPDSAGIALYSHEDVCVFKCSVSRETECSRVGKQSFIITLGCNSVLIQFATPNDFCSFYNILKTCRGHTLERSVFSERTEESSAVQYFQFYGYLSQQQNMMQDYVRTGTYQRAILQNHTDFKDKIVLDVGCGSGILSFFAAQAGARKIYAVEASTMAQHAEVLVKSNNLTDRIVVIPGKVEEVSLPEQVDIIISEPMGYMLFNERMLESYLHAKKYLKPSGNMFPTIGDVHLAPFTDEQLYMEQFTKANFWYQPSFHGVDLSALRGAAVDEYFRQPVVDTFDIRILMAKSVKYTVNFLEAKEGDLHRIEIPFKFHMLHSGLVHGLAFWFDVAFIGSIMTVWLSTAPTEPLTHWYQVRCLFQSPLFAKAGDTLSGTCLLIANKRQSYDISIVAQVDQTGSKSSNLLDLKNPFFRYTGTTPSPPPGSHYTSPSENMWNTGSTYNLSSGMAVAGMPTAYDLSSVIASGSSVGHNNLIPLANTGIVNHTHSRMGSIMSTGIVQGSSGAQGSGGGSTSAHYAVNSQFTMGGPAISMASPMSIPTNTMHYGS
Briefly: PRMT4/CARM1 methyltransferase inhibition assay. In kind it is biochemical. Particulars: 3.7, 11.1, 33.3, and 100 μM.

For the next data set, the target named is SMYD2 (Homo sapiens, UniProt Q9NRG4). Description: Methyltransferase selectivity assay. In kind it is biochemical.
The next data set has as its target PRMT5 (Homo sapiens, UniProt O14744). Description: Methyltransferase selectivity assay. In kind it is biochemical.
Another data set addresses DOT1L (Homo sapiens, UniProt Q8TEK3). Description: Methyltransferase selectivity assay. In kind it is biochemical.
Data set [1] concerns HSC-2 human oral cancer cell line. Description: MTT cell proliferation/viability assay. It is filed as cell-based.
Data set [2] has as its system A549 human lung cancer line. Briefly: MTT cell proliferation/viability assay. It is filed as cell-based.
The subject of data set [3] is T24 human bladder cancer cell line. Briefly: MTT cell proliferation/viability assay. It is filed as cell-based.
Data set [4] is described as follows: Parallel artificial membrane permeability assay. In kind it is in vitro ADME. The following applies: PAMPA.
Setting [5] is: lower concentrations tested (from 1 μM).

Sequence of SMYD2 (Q9NRG4 whole entry, species assumed): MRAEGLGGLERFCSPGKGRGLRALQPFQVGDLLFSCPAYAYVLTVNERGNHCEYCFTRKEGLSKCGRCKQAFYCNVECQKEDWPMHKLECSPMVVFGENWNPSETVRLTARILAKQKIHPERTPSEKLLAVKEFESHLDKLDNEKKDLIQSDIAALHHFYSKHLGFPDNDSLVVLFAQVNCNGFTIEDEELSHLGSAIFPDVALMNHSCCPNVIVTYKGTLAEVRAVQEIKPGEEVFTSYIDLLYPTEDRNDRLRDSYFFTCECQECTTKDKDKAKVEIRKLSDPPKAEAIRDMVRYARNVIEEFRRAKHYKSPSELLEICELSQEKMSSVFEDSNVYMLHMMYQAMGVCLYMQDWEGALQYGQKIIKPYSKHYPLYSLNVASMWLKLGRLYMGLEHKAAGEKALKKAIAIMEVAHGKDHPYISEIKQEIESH
Sequence of PRMT5 (O14744 whole entry, species assumed): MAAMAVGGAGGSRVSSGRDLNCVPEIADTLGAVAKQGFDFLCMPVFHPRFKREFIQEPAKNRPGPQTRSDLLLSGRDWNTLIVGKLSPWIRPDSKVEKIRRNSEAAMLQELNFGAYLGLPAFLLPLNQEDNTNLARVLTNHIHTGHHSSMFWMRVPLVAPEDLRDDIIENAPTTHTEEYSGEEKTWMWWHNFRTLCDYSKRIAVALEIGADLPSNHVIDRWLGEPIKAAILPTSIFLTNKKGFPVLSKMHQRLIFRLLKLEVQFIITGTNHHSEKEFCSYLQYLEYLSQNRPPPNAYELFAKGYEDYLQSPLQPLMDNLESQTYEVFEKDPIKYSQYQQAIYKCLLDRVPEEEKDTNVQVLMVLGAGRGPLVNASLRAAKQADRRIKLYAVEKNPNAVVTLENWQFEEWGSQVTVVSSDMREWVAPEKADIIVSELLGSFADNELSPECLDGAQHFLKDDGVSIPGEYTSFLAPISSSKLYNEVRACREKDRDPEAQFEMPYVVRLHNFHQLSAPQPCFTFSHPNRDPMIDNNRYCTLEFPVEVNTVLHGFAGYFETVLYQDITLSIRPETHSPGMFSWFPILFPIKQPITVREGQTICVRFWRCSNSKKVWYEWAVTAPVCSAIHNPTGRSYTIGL
Sequence of PRMT5 (Q9BQA1 whole entry partner, species assumed): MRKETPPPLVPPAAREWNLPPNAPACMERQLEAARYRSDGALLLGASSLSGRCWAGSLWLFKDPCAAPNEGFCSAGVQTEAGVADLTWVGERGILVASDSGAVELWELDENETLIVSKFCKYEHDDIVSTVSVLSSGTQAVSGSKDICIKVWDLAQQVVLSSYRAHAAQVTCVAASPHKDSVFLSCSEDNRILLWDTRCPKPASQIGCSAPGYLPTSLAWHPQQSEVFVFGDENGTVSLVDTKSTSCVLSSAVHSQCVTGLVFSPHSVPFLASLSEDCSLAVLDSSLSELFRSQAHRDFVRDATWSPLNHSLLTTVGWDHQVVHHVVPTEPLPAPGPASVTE
Sequence of DOT1L (Q8TEK3 whole entry, species assumed): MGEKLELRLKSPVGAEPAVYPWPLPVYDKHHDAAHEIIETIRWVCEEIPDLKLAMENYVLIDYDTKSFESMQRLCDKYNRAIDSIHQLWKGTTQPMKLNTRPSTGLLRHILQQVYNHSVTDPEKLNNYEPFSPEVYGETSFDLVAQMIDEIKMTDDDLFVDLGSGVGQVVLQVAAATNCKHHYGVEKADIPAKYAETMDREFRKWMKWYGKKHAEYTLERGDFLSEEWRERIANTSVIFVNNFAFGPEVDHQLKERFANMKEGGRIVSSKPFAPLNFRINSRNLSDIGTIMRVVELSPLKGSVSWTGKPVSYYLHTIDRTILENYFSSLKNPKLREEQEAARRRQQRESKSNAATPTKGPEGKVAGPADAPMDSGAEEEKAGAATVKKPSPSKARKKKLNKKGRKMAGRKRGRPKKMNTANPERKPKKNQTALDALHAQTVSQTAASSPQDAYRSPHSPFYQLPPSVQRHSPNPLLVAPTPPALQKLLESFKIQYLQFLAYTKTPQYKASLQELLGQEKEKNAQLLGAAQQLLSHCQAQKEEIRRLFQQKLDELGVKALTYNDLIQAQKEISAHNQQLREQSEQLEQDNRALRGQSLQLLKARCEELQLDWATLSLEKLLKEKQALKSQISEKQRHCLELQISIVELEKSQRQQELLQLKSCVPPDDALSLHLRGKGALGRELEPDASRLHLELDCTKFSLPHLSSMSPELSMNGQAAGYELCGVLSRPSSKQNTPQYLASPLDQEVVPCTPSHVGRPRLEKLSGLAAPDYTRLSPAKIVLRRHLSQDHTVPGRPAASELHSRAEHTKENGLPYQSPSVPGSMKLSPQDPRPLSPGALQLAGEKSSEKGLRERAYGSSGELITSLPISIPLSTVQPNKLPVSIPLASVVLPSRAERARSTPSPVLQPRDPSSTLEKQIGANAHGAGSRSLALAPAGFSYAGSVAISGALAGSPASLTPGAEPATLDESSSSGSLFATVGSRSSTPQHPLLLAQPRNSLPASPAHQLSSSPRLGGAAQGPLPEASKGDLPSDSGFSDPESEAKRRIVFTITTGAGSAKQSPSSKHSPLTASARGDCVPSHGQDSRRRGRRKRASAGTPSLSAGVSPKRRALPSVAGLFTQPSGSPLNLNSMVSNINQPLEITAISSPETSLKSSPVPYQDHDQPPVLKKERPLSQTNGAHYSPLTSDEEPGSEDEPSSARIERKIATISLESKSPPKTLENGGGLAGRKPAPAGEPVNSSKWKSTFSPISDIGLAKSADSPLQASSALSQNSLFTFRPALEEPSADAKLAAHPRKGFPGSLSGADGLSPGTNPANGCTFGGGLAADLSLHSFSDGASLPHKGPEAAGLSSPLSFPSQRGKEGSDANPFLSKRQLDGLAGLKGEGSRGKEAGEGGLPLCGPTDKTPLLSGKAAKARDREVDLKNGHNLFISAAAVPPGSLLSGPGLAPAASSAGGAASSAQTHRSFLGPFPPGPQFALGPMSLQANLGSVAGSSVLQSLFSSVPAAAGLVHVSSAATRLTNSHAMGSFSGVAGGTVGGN

Take `N#Cc1ccc(/C=C/CN(CC[C@H](N)C(=O)O)C[C@H]2O[C@@H](n3cnc4c(N)ncnc43)[C@H](O)[C@@H]2O)cc1` [Compound 17u, (S)-2-Amino-4-((((2R,3S,4R,5R)-5-(6-amino-9H-purin-9-yl)-3,4-dihydroxytetrahydrofuran-2-yl)methyl)((E)-3-(4-cyanophenyl)allyl)amino)butanoic Acid]: on Human recombinant PNMT (1 and 10 μM), the “PNMT inhibition at the concentrations tested” value is on record as “less than 50%”. In addition, the “inhibitory activity against PNMT lower than against NNMT” value on Human recombinant PNMT (selectivity NNMT over PNMT) is given as “more than 3000 fold”. Also, the “PRMT4/CARM1 inhibition at the concentrations tested” value on PRMT4/CARM1 was “no inhibition was observed”. The activity at 1 µM at SMYD2 (read-out: SMYD2 Average Activity (%) 1µM) is 39%. For the same compound, the activity at 10 µM at SMYD2 (read-out: SMYD2 Average Activity (%) 10µM) stood at 19%. Moreover, the “higher potency toward NNMT (than SMYD-2)” value on SMYD2 (selectivity NNMT over SMYD-2) is reported as > 100 fold. Besides, the “PRMT5 activity of the compound (in words)” value at PRMT5 (1 μM) is reported as “no appreciable activity”. Also, the inhibition at 10 µM on PRMT5 (read-out: PRMT5 inhibition) and at DOT1L (read-out: DOT1L inhibition) was > 50% in each case. Also, the “DOT1L activity of the compound (in words)” value on DOT1L (1 μM) is recorded as “no appreciable activity”. Moreover, the “effect on cell viability, HSC-2” value in data set [1] (100 μM, MTT, 24, 48 and 72 h) is “clear inhibition of the cell viability; also recorded: significant decrease in cell viability”; in data set [1] (setting [5]) it was “absent”. Besides, the “effect on cell viability, A549” value in data set [2] (100 μM, MTT, 24, 48 and 72 h) is “clear inhibition of the cell viability; also recorded: significant decrease in cell viability”; in data set [2] (setting [5]), “absent”. Besides, the “effect on cell viability, T24” value in data set [3] (100 μM, MTT, 24, 48 and 72 h) is “clear inhibition of the cell viability; also recorded: significant decrease in cell viability”; in data set [3] (setting [5]), “absent”. Also, the “cell permeability (in words)” value in data set [4] was “very poor cell permeability; also recorded: poor cell permeability”.

As a reminder, the inhibition is the percentage by which the read-out fell short of the control.

For the origin of these results see publication PMC8436214 (Journal of Medicinal Chemistry, 2021).
